Key:
HeLa = assay: cells; assay type: cell-based; conditions: Homo sapiens, HeLa, read-out: IC50 against cell proliferation, HeLa
A549 = assay: cells; assay type: cell-based; conditions: Homo sapiens, A549, read-out: IC50 against cell proliferation, A549
MCF-7 = assay: cells; assay type: cell-based; conditions: Homo sapiens, MCF7, read-out: IC50 against cell proliferation, MCF-7
PI3Kα = PI3Kα (Homo sapiens, UniProt P42336); assay: In vitro PI3K enzyme inhibitory assay (ADP-Glo), PI3Kα; assay type: biochemical; conditions: read-out: PI3Kα % inhibition at 10 μM
Chain of PI3Kα (P42336 whole entry): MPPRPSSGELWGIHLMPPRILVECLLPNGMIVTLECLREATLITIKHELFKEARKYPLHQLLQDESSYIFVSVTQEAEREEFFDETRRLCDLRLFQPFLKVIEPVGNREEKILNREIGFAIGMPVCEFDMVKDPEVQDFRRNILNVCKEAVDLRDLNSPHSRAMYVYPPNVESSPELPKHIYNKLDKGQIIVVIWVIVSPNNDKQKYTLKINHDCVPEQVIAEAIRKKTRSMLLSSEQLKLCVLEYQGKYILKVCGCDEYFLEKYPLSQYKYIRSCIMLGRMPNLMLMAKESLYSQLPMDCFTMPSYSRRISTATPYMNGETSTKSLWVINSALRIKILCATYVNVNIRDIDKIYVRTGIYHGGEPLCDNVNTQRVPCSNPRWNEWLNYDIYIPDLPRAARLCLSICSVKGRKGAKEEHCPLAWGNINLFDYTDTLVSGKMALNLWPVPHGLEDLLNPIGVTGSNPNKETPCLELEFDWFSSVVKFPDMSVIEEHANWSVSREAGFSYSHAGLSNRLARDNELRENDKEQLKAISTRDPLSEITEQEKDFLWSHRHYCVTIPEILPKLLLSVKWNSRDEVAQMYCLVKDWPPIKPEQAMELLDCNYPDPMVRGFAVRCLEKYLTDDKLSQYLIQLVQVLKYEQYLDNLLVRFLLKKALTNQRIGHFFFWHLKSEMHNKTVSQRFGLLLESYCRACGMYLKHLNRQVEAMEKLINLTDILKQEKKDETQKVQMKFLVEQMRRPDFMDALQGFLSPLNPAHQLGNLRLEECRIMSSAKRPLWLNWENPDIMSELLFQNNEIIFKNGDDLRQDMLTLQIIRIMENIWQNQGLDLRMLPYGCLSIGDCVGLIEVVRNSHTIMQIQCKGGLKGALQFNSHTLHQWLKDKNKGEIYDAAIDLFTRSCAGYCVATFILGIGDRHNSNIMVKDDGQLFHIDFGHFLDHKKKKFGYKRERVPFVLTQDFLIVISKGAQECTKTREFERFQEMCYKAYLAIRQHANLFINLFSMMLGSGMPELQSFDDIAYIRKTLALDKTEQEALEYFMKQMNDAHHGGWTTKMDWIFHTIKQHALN
Chain of PI3Kα (P27986 whole entry partner): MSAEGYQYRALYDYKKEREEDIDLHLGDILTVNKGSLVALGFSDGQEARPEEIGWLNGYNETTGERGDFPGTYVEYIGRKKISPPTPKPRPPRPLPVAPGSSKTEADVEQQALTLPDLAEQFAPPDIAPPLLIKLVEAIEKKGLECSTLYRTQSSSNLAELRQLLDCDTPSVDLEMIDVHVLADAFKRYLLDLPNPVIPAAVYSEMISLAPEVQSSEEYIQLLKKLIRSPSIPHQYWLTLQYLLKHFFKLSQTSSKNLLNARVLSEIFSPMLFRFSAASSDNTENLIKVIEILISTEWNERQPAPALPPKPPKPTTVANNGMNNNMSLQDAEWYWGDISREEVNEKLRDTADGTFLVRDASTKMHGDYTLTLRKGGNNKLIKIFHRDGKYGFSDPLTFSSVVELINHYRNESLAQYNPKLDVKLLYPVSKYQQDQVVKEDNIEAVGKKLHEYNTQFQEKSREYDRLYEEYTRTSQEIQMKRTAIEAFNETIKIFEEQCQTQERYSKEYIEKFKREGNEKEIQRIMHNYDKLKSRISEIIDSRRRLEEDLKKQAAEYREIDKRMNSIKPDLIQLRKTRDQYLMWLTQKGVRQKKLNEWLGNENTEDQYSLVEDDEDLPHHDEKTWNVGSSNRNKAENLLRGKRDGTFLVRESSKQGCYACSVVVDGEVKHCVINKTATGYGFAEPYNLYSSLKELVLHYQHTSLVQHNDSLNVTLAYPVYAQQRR

PI3Kβ = PI3Kβ (Homo sapiens, UniProt P42338); assay: In vitro PI3K enzyme inhibitory assay (ADP-Glo), PI3Kβ; assay type: biochemical; conditions: read-out: PI3Kβ % inhibition at 10 μM
Chain of PI3Kβ (P42338 whole entry): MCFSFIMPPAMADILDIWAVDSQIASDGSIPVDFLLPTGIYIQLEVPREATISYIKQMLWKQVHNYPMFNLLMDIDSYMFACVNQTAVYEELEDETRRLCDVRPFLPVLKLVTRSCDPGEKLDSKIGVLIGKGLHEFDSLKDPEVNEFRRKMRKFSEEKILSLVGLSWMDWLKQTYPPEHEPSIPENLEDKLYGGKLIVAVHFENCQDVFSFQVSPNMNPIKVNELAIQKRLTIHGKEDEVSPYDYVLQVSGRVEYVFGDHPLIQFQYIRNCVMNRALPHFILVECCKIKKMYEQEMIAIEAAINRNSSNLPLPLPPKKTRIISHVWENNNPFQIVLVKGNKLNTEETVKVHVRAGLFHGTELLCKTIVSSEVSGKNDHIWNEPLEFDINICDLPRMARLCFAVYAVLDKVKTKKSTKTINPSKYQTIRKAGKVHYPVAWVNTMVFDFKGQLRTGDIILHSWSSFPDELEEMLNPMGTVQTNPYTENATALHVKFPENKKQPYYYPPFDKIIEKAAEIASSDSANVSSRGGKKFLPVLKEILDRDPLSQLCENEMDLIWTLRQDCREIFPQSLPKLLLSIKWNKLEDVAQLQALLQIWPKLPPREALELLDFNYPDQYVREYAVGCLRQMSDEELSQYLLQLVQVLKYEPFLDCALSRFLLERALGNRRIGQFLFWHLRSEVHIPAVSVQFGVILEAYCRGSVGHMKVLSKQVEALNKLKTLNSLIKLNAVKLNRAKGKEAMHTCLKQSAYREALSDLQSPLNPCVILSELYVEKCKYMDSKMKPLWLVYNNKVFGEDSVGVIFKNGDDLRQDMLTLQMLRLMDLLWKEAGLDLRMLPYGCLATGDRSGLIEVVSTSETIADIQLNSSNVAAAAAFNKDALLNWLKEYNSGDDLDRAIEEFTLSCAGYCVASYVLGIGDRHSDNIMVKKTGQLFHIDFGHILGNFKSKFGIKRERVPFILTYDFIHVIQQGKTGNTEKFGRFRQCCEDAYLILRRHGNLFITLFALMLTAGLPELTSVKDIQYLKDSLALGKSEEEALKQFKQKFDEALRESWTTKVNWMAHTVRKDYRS
Chain of PI3Kβ (P27986 whole entry partner): as the sequence (P27986 whole entry partner) above

PI3Kγ = PI3Kγ (Homo sapiens, UniProt P48736); assay: In vitro PI3K enzyme inhibitory assay (ADP-Glo), PI3Kγ; assay type: biochemical; conditions: read-out: PI3Kγ % inhibition at 10 μM
Chain of PI3Kγ (P48736 whole entry): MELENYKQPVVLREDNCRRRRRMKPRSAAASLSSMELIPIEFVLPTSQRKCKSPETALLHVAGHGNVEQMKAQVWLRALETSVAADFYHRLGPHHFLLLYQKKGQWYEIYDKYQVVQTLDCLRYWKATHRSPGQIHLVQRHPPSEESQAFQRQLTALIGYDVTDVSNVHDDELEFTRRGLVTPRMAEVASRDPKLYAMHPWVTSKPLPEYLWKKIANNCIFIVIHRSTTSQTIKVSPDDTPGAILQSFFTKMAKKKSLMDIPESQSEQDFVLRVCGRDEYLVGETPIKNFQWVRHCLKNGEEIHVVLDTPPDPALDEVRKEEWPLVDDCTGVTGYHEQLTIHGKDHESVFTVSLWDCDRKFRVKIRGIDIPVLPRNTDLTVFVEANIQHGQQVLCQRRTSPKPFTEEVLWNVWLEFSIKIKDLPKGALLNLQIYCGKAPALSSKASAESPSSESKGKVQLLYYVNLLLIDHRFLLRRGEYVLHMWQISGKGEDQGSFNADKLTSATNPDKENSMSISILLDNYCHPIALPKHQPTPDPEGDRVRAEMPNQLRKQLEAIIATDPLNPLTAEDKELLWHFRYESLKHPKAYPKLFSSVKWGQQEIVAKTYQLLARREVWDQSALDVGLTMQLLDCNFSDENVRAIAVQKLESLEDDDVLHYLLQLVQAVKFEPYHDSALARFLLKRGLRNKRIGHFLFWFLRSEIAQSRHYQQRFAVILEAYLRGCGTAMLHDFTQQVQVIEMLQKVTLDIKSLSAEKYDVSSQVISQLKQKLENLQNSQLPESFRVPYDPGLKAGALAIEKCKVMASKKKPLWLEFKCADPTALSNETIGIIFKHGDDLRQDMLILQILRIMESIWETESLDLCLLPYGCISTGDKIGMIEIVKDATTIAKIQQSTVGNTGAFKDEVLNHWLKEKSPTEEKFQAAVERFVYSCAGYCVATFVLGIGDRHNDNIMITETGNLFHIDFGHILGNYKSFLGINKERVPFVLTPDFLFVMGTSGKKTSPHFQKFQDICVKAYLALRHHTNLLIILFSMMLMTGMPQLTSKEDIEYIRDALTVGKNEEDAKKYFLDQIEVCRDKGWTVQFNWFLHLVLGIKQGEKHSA

AKT = assay: In vitro AKT enzyme inhibitory assay; assay type: biochemical
[1] = tested on: RAW264.7 macrophage cells; assay: CCK-8 cell viability, RAW264.7 macrophages; assay type: cell-based, Mouse; conditions: 24 h
Protocol: To obtain more accurate anti-inflammatory results and minimize the impact of cell death caused by the test compounds on the outcomes, we first evaluated the effects of the compounds on RAW264.7 macrophage viability. The cells were divided into two groups: one treated with […] LPS and the other untreated. Macrophages were exposed to compounds at concentrations of 10, 50, and 100 μM for 24 h, followed by cell viability measurement using the CCK-8 assay ([Huang et al., 2022]; [Flannigan and Wallace, 2015]; [Citi et al., 2020]; [Gemici and Wallace, 2015]). […] In the presence of LPS stimulation, a slight reduction of 11% cell activity was observed.
The CCK-8 assay is a commonly used method for assessing cell viability, based on cellular metabolic activity. […]
The CCK-8 assay is a commonly used method for assessing cell viability, based on cellular metabolic activity. […] The culture plate is then incubated in a suitable incubator for a defined period (usually 4 hours), followed by measuring the absorbance of each group's culture medium using a spectrophotometer, typically at a wavelength of 450 nanometers. Cell relative activity or viability is calculated based on absorbance values, often by subtracting the background absorbance from the control group's values and normalizing to the control group's values to obtain relative activity or viability.

[2] = tested on: nitrite production in RAW264.7 cells; assay: Griess assay, LPS-induced nitrite production in RAW264.7; assay type: cell-based; conditions: Mus musculus, 24 h, 1 mg/mL LPS
Description: Nitric oxide (NO) affects inflammation signaling pathways, regulating the intensity and timing of inflammatory responses, making it a crucial regulatory molecule in inflammation. LPS induces the production of nitric oxide (NO) by activating a series of signal transduction pathways. Upon NF-κB activation, transcription of the iNOS gene is promoted, leading to the synthesis of inducible nitric oxide synthase (iNOS). iNOS is an enzyme that produces large amounts of NO, activated under inflammatory conditions to release substantial nitric oxide ([Kumar, 2023]). In vivo, NO is easily oxidized by superoxide ions to generate nitrites. Studies have shown that H2S not only acts to scavenge peroxides but also undergoes chemical reactions with NO, forming novel nitrosylthiol compounds. We assess the anti-inflammatory activity of compounds by measuring nitrite production ([Somensi et al., 2019]).
The Griess assay is used to measure nitrite levels in biological samples, both in vivo and in vitro. See Supplementary Material for more details ([Kumar, 2023]).
The Griess assay is used to measure nitrite levels in biological samples, both in vivo and in vitro. […] The absorbance is measured at a wavelength of 540-550 nanometers, and the concentration of the red product is directly proportional to the absorbance. Nitrite concentrations can be calculated using a standard curve.

[3] = tested on: TNF-α levels in RAW264.7 cells; assay: ELISA, LPS-mediated TNF-α in RAW264.7; assay type: cell-based, Mouse; conditions: LPS-induced RAW264.7, 24 h, vs control group
[4] = tested on: IL-10 level in RAW264.7 cells; assay: ELISA, IL-10 in RAW264.7; assay type: cell-based, Mouse; conditions: RAW264.7, 24 h
[5] = tested on: HO-1 levels in RAW264.7 cells; assay: ELISA, HO-1 in RAW264.7; assay type: cell-based, Mouse; conditions: RAW264.7, 24 h
[6] = H2S release, methylene blue (MB+) method; assay type: physicochemical; conditions: MB+ method with TECP or cysteine; different temperature and pH
[7] = tested on: HepG2 cell lines (liver tumor cell)
[8] = tested on: LO2 cell lines (normal liver cell)
WI38 normal cells [9] = tested on: WI38 normal cells
[10] = tested on: HepG2 cell lines (liver tumor cell); assay: cells; conditions: Homo sapiens, HepG2, 24 h, read-out: IC50 HepG2
[11] = tested on: LO2 cell lines (normal liver cell); assay: cells; conditions: Homo sapiens, L02, 24 h, read-out: IC50 LO2
WI38 normal cells [12] = assay: cells; conditions: Homo sapiens, WI-38, read-out: IC50 WI38

## O=[N+]([O-])c1ccc2c(c1)NP(=S)(c1ccccc1)O2 (centres unmarked) [Compound S11, 5-nitro-2-phenyl-3H-benzo [d][1,3,2] oxazaphosphole 2-sulfide]
HeLa
  IC50: 260 ± 7.6 µM
A549
  IC50: 294 ± 16.6 µM
MCF-7
  IC50: 23 ± 3.2 µM
PI3Kα
  inhibition at 10 µM: 67%
PI3Kβ
  inhibition at 10 µM: 75%
PI3Kγ
  inhibition at 10 µM: 45%
AKT
  AKT % inhibition at 10 μM: 61%
[1]; absence of LPS, 10, 50, 100 μM
  Effect on RAW264.7 cell growth: no significant effect on cell growth
[1]; presence of LPS stimulation, 10, 50, 100 μM
  Reduction of RAW264.7 cell activity: 11%
[2]
  inhibition at 100 µM: ~75%
[3]
  Decrease of TNF-α induction level: 80%
[4]
  Induction level of IL-10 relative to control group: three times that of the control group
[5]
  HO-1 expression relative to control group: approximately twice the level of the control group
[6]
  H2S release amount (in words): the highest amount of hydrogen sulfide was released
[7]
  Toxicity in words, HepG2: low cytotoxicity
[8]
  Toxicity in words, LO2: low cytotoxicity
WI38 normal cells [9]
  Toxicity in words, WI38: low cytotoxicity
[10]
  IC50: > 400 µM
[11]
  IC50: > 200 µM
WI38 normal cells [12]
  IC50: > 200 µM
